Values joined by “and” are separate entries in the source; they are usually repeats but may differ in a detail not shown here. Equal values may be shown once.
Legend:
[1] = system: catD / beta-secretase (BACE); experiment: CatD/BACE selectivity (ratio of IC50 values); format: biochemical; conditions: each value is an average of four experimental runs; multiple values = more than one experiment
Method: (§1) Investigation of potential beta-secretase inhibitors produced compounds with increased selectivity for beta-secretase over other aspartyl proteases such as cathepsin D (catD), cathepsin E (catE), Human Immunodeficiency Viral (HIV) protease, and renin. Selectivity was calculated as a ratio of inhibition (IC50) values in which the inhibition of beta-secretase was compared to the inhibition of other aspartyl proteases.
The compounds of formula (I) can be selective for beta-secretase versus catD.
(§2) In the following examples, each value is an average of four experimental runs and multiple values for one compound indicate that more than one experiment was conducted.

[2] = system: catE / beta-secretase (BACE); experiment: CatE/BACE selectivity (ratio of IC50 values); format: biochemical; conditions: each value is an average of four experimental runs, multiple values = more than one experiment
Method: as §1
The compounds of formula (I) can be selective for beta-secretase versus catE. […] Selectivity is reported as the ratio of IC50(catE):IC50(BACE).
as §2

| Selectivity IC50 catD/IC50 BACE [1] | Selectivity IC50 catE/IC50 BACE [2] | Selectivity IC50 catE/IC50 BACE ([2]; listed as 8.3) | Structure (SMILES) |
| --- | --- | --- | --- |
| >3.3 | >3.3 |  | CC(=O)NC(Cc1cc(F)cc(F)c1)C(O)C1CC2CCCCC2CN1 (stereo not shown) [Example 8.2, N-(1-(decahydroisoquinolin-3-yl)-3-(3,5-difluorophenyl)-1-hydroxypropan-2-yl)acetamide] |
| > 2.9 and > 2.4 |  | > 2.9 and > 2.4 | CCCC1CCNC(C(O)C(Cc2cc(F)cc(F)c2)NC(C)=O)C1 (stereo not shown) [Example 8.1, N-[1-(3,5-Difluoro-benzyl)-2-hydroxy-2-(4-propylpiperidin-2-yl)-ethyl]-acetamide] |

Source: patent publication US20060074098A1, “Methods of treatment of amyloidosis using ethanolcyclicamine aspartyl protease inhibitors” (priority 2004, published 2006)
